From patent publication US10864269B2, “Therapeutic combinations comprising anti-CD73 antibodies and uses thereof” (MedImmune Limited, priority 2014, dated 2020)

Assays:
[1] = tested on: IFNγ; assay: Mixed leukocyte reaction, IFNγ supernatant levels; type: cell-based; details: human mixed leukocyte reaction, 72 hours, 1 μM each agent
Protocol: (§1) The release of immune activating cytokines IFNγ and TNFα was evaluated in human mixed leukocyte cultures with anti-CD73 monoclonal antibody alone and in combination with an adenosine receptor inhibitor (A2ARi). The levels of IFNγ and TNFα in supernatants were detected by ELISA. Human peripheral blood lymphocytes were set up in a mixed leukocyte reaction for 72 hours and stimulated with anti-CD73 alone, A2AR inhibitor alone or both agents. Peripheral blood mononuclear cells from pairwise combinations of 8 donors were incubated for 72 hours in the presence of 1 μM anti-CD73 antibody MEDI9447 and 1 μM A2ARi SCH58261, either alone or in combination. After incubation, supernatant levels of Interferon gamma (IFNγ) and Tumor Necrosis Factor Alpha (TNFα) were measured using a Mesoscale ELISA plate. The levels of IFNγ and TNFα observed after incubation with each compound were plotted as duplicate fold-control values using levels from incubation with an isotype control antibody as a negative control.

[2] = tested on: TNFα; assay: Mixed leukocyte reaction, TNFα supernatant levels; type: cell-based; details: human mixed leukocyte reaction, 72 hours, 1 μM each agent
Protocol: as §1

[3] = tested on: CD4+CD25− T cell proliferation; assay: AMP-mediated suppression of CD4+CD25− T cell proliferation; type: cell-based; details: primary human CD4+CD25− T cells, 100 or 200 μM AMP, 72 hours, CFSE
Protocol: In an assay for AMP-mediated T-cell suppression, primary human CD4^+ T cells depleted of CD25^+ cells were isolated from the content of leukocyte cones and used as effector cells; each cone was processed separately. Briefly, the content from a leukocyte cone was diluted in PBS, then layered over FICOLL-PAQUE® Plus (GE Healthcare, Chalfont St Giles, UK) and centrifuged at 400×g for 40 minutes with brakes turned off. Peripheral blood mononuclear cells (PBMC) were then isolated from the interface and washed with PBS by centrifugation at 200×g for 10 minutes. Supernatant was discarded and cells were suspended in PBS. Viable cells were determined, then pelleted at 350×g for 5 minutes and suspended in ROBOSEP buffer (Stem Cell, Grenoble, France) at a concentration of 5×10^7 per mL. […]
Isolated effector cells were labeled with CFSE probe (3 μM) using the CELLTRACE CFSE cell proliferation kit (Life Technologies, Paisley, UK) at a cell density of 1×10^6 cells per mL in PBS containing 0.1% BSA with an incubation period of 15 minutes at 37° C. […] Phen0203 hIgG1 was received as a ready-to-use formulation (Medlmmune, Gaithersburg, Md.) and was diluted in phosphate-buffered saline (PBS). R347 was received as a ready-to-use formulation (Medlmmune, Gaithersburg, Md.) and was diluted in PBS. […]

[4] = tested on: CT26 murine colon carcinoma; assay: CT26 syngeneic tumor model, MEDI9447 mIgG1 with anti-PD-1; type: in vivo, Balb/C mice
Protocol: Syngeneic tumors were established by subcutaneous (SC) injection of 0.1 ml of 5×10^6 CT26 cells/ml suspended in HBSS into the right flanks of 8- to 10-week-old animals.
Tumors were measured by caliper and the volumes of tumors (TV) were calculated using the following formula: TV=(L×W^2)/2 (1)
Mice were randomized into groups based on bodyweight. There were no animal substitutions. 60 female Balb/c mice were used in this study.
Animals were randomly assigned into 6 groups. Animals were administered MEDI9447(mIgG1). Test articles were administered by intraperitoneal (IP) injection twice weekly starting on Day 3.
CT26 murine colon carcinoma were implanted into syngeneic Balb/C mice and treated with anti-CD73 (MEDI9447 mIgG1; 10 mg/kg), anti-PD1 (0.5 mg/kg) or the combination (10 mg/kg anti-CD73 and 0.5 mg/kg anti-PD1). […] Tumor volumes from each group of animals were plotted for individual animals out to study day 40. No control group mice were tumor free by the end of the 40 day study period (See FIG. 6). […] None of the control group mice were tumor free by the end of the study. CT26 tumors were measured in mice treated with anti-CD73 (MEDI9447 mIgG1), anti-PD1 or the combination of anti-CD73 and anti-PD1. Mice were measured until study day 40, and humanely sacrificed once tumors reached 2000 mm^3. […] Median survival increased from 25 and 33 days (anti-CD73 and anti-PD1, respectively) compared to “undefined” at day 40 for the combination.

[5] = study day 40, anti-CD73 10 mg/kg, anti-PD1 0.5 mg/kg, ip 2x weekly, 4 doses

Row | Compound | IFNγ supernatant levels [1] | TNFα supernatant levels / secretion [2] | T cell proliferation in the presence of AMP [3] | Median survival ([4]; CT26, followed until study day 40) | Survival [4, 5] | Tumor free mice [4, 5]
1 | Nc1nc2c(cnn2CCc2ccccc2)c2nc(-c3ccco3)nn12 [SCH58261, reference compound] | capable of inducing | capable of inducing | increase of T-cell proliferation | – | – | –
2 | Nc1ncnc2c1ncn2[C@@H]1O[C@H](COP(=O)(O)CP(=O)(O)O)[C@@H](O)[C@H]1O [APCP, adenosine 5′-(α,β-methylene)diphosphate] | – | – | increase of T-cell proliferation | – | – | –
3 | MEDI9447 mIgG1: anti-CD73 antibody MEDI9447 in murine IgG1 format | capable of inducing | capable of inducing | – | 25 days | 10% | 10%
